Data from patent US20250345295A1, “LMK235 COMPOSITIONS AND METHODS” (UNM Rainforest Innovations, priority 2024, published 2025).

Test system: mice
Assay: Conditioned place preference (CPP) test of addictive potential
Type: in vivo, mouse
Conditions: 5 mg/kg, three conditioning days
From the text: The conditioned place preference (CPP) test was used to compare morphine and LMK235 post-drug behaviors to baseline. Time spent in their assigned drug administration chamber post-drug was divided by the time spent in the chamber during the baseline recording. A score of 1 meant that there was no difference in time spent in either chamber after dosing. A score greater than 1 meant more time was spent in the assigned drug chamber, and a score less than 1 meant less time was spent in the assigned drug chamber.
Mice were assigned either vehicle, morphine (5 mg/kg) or LMK235 (5 mg/kg) and assigned cubicle designation for groups (n=3) as follows: Vehicle-Blank, Vehicle-Striped, Morphine-Blank, Morphine-Striped, LMK-Blank, LMK-Striped. For baseline collection, mice were placed in the middle of the box and allowed access to both chambers for 15 minutes. Time spent in each chamber was recorded. For the subsequent three test days, mice were injected with their assigned drug and placed in their assigned chamber, without access to the other chamber, for 30 minutes. On the final test day, mice were placed in the middle of the box and allowed access to both chambers for 15 minutes. Time spent in each chamber was recorded.

Q: For `CN1CC[C@]23c4c5ccc(O)c4O[C@H]2[C@@H](O)C=C[C@H]3[C@H]1C5` [morphine], which “time in assigned drug chamber post-drug versus baseline (addictive potential)” value is on record?
A: Its value is “spent more time in their assigned drug chamber”.
